This note sets out measurements from PubChem BioAssay (NCI).

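Each compound was tested at five concentrations against cells in 96-well plates for 48 hours. Abbreviation: GI50, concentration required for 50% inhibition of growth. TGI: concentration producing complete growth inhibition.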

Test systems include SNB-75 CNS; OVCAR-4 ovarian; NCI-H522 lung; NCI-H23 lung; OVCAR-8 ovarian; CAKI-1 renal; MDA-MB-231 breast; MDA-N.
What all share (experiment): NCI tumour cell line growth inhibition, 48 h

`N=c1oc2cc(O)ccc2cc1C(=O)Nc1cccc2ccccc12`: the TGI in the assay on SNB-75 CNS is 13.9 µM; in the assay on OVCAR-4 ovarian, over 51.1 µM; with NCI-H522 lung, 7.47 µM; in the assay with NCI-H23 lung, 12.9 µM; with OVCAR-8 ovarian, 18.3 µM; with CAKI-1 renal, 24.8 µM. The compound further returned a TGI with MDA-MB-231 breast of 10.1 µM.

On to `Cc1ccc(S(=O)(=O)Nn2c(S)c(C#N)c(-c3ccc(Cl)cc3)c(C#N)c2=O)cc1`, for which the TGI with SNB-75 CNS is over 100 µM; with OVCAR-4 ovarian, 43.2 µM; in the assay on NCI-H522 lung it was 37.4 µM; in the assay with NCI-H23 lung it was over 100 µM; in the assay with OVCAR-8 ovarian it was 50.8 µM; with CAKI-1 renal it was over 100 µM. In the assay on MDA-MB-231 breast, this compound displayed a TGI of over 100 µM.

For the compound `O=C(Nc1ccc(F)cc1)c1cc2c(cc1Cl)Sc1nccn1S2(=O)=O`, the TGI in the assay on SNB-75 CNS was 46.9 µM; in the assay with OVCAR-4 ovarian, over 100 µM; with NCI-H522 lung it was over 100 µM; with OVCAR-8 ovarian, over 100 µM; in the assay with MDA-N, over 100 µM; in the assay with CAKI-1 renal it was over 100 µM. In the assay with MDA-MB-231 breast, this compound gave a TGI of over 100 µM.

In the case of `CC(C)[Si](Oc1ccc(CC2N(C(=O)c3ccc([N+](=O)[O-])cc3)C(CCc3ccccc3)CC2(C)C=O)cc1)(C(C)C)C(C)C` (stereo not drawn), the TGI with OVCAR-4 ovarian is over 100 µM; in the assay with NCI-H522 lung, over 100 µM; in the assay on NCI-H23 lung, over 100 µM; with OVCAR-8 ovarian, 42.5 µM; in the assay with CAKI-1 renal, over 100 µM; with MDA-MB-231 breast it was 95.5 µM.

Consider `Nc1ccc(C2SCC(=O)N2NS(=O)(=O)c2cccc(C(=O)O)c2)cc1` (stereo not drawn), for which the TGI in the assay on SNB-75 CNS, in the assay with NCI-H522 lung, in the assay with NCI-H23 lung, in the assay on OVCAR-8 ovarian, with MDA-N and in the assay on CAKI-1 renal was over 100 µM throughout. This compound also returned a TGI in the assay on MDA-MB-231 breast of over 100 µM.

For the compound `Nc1ncnc2c1ccn2-c1cccc(NC(=O)c2ccc(N3CCOCC3)c(C(F)(F)F)c2)c1`, the GI50 with SNB-75 CNS is 1.31 µM; with OVCAR-4 ovarian, 3.57 µM; in the assay with NCI-H522 lung, 1.74 µM; with NCI-H23 lung, 2.95 µM; in the assay with OVCAR-8 ovarian, 2.91 µM; with CAKI-1 renal, 2.69 µM. Further, the GI50 in the assay on MDA-MB-231 breast is 2.47 µM. Moreover, the TGI in the assay with SNB-75 CNS was 9.02 µM; with OVCAR-4 ovarian it was 12.5 µM; with NCI-H522 lung, 5.2 µM; in the assay with NCI-H23 lung it was 13.6 µM; with OVCAR-8 ovarian, 9.62 µM; in the assay on CAKI-1 renal, 8.73 µM. The same compound registered a TGI in the assay on MDA-MB-231 breast of 10.9 µM.

On to `O=C(NC(OCc1ccccc1)(C(F)(F)F)C(F)(F)F)OCc1ccccc1`, for which the TGI was 29 µM with SNB-75 CNS; 26.5 µM with NCI-H522 lung; 25.8 µM in the assay with NCI-H23 lung; 30.1 µM in the assay on OVCAR-8 ovarian; 28.5 µM with MDA-N; 27.5 µM in the assay on CAKI-1 renal. This compound also registered a TGI in the assay with MDA-MB-231 breast of 32.3 µM.

`O=C(O)c1ccc(Nc2cnc3cc(C(F)(F)F)ccc3n2)cc1`: the TGI was over 100 µM in the assay with SNB-75 CNS; 60.6 µM in the assay on NCI-H522 lung; over 100 µM in the assay with NCI-H23 lung; over 100 µM in the assay on OVCAR-8 ovarian; over 100 µM with MDA-N; over 100 µM in the assay with CAKI-1 renal. The TGI with MDA-MB-231 breast is over 100 µM.

Regarding `COCCCNc1c2ccccc2nc2ccccc12`, the TGI with OVCAR-4 ovarian came to 20.6 µM; with NCI-H522 lung it was 6.8 µM; in the assay with NCI-H23 lung it was 10.3 µM; in the assay on OVCAR-8 ovarian it was 15.5 µM; in the assay on MDA-N it was 8.78 µM; in the assay with CAKI-1 renal, 3.75 µM. In the assay with MDA-MB-231 breast, this compound showed a TGI of 12.5 µM.

On to `CCCCCCCCCCCCc1ccsc1-c1ccc(-c2ccc(-c3sccc3CCCCCCCCCCCC)s2)s1`, for which the TGI with SNB-75 CNS, in the assay on NCI-H522 lung, with NCI-H23 lung, in the assay with OVCAR-8 ovarian, in the assay with MDA-N and in the assay with CAKI-1 renal was over 100 µM in each case. In addition, in the assay on MDA-MB-231 breast, the TGI was over 100 µM.

In the case of `COC(=O)c1c2c(cc3c1CC1(C3)Cc3cc4c(c(C(=O)OC)c3C1)CCC4)CCC2`, the TGI in the assay on OVCAR-4 ovarian, in the assay with NCI-H522 lung, in the assay on NCI-H23 lung, with OVCAR-8 ovarian, with MDA-N and with MDA-MB-231 breast was over 100 µM in each case.

Take `C#CCn1c(=O)ccn(/C(=C/C(=O)OCC)C(=O)OCC)c1=O`: the TGI was found to be 46.5 µM in the assay with SNB-75 CNS; 17.8 µM with OVCAR-4 ovarian; 25.1 µM in the assay on NCI-H23 lung; 5.11 µM in the assay on OVCAR-8 ovarian; 41.1 µM with MDA-N; 3.05 µM in the assay on CAKI-1 renal. The TGI in the assay on MDA-MB-231 breast was found to be 40.9 µM.

For the compound `OCC1OC(n2cnc3c(Cl)nc(Nc4ccc(Cl)c(Cl)c4)nc32)CC1O` (stereo not drawn), the TGI was found to be 42.2 µM in the assay with SNB-75 CNS; 41.8 µM in the assay with OVCAR-4 ovarian; 18.1 µM with NCI-H522 lung; 22.6 µM in the assay on NCI-H23 lung; 22.6 µM in the assay on OVCAR-8 ovarian; 33.7 µM in the assay with CAKI-1 renal. Further, the TGI with MDA-MB-231 breast worked out at 23.5 µM.

With `COc1ccc(CNc2nc3cc(C(F)(F)F)ccc3nc2C(=O)O)cc1`, the TGI in the assay on SNB-75 CNS is over 100 µM; with OVCAR-4 ovarian, over 100 µM; in the assay with NCI-H23 lung, 76.3 µM; in the assay with OVCAR-8 ovarian it was over 100 µM; in the assay with MDA-N, 74.6 µM; in the assay with CAKI-1 renal, over 100 µM. Also, the TGI in the assay on MDA-MB-231 breast was over 100 µM.

With `COC(=O)C1Cc2cc3c(cc2C1)CCC3`, the TGI in the assay with SNB-75 CNS, with OVCAR-4 ovarian, in the assay with NCI-H23 lung, with OVCAR-8 ovarian, in the assay with MDA-N and with CAKI-1 renal was over 100 µM each time. The same compound had a TGI in the assay with MDA-MB-231 breast of over 100 µM.

In the case of `O[C@@]12Cc3c([nH]c4ccccc34)[C@@H]3Oc4c(-c5ccccc5)ccc5c4[C@@]31CCN(CC1CC1)[C@@H]2C5`, the TGI in the assay with OVCAR-4 ovarian was 7.03 µM; in the assay with NCI-H522 lung, 3.36 µM; in the assay on NCI-H23 lung, 3.55 µM; in the assay on OVCAR-8 ovarian, 5.01 µM; with MDA-N it was 3.23 µM; in the assay on CAKI-1 renal, 11.1 µM.

Turning to `COc1ccc(/C=C/C(=O)CCN2CCN(CCC(=O)/C=C/c3ccc(OC)cc3)CC2)cc1`, the TGI is 58.6 µM in the assay on SNB-75 CNS; 50 µM with OVCAR-4 ovarian; 30.1 µM in the assay with NCI-H23 lung; 42.4 µM in the assay on OVCAR-8 ovarian; 10.5 µM in the assay with MDA-N; 26.3 µM in the assay on CAKI-1 renal. The TGI in the assay with MDA-MB-231 breast is 25.2 µM.
